The results in this text go back to ChEMBL document CHEMBL4368922 (Bioorg Med Chem Lett, 2019).

Assay [1] concerns the target T1, Lysine-specific histone demethylase 1A (Homo sapiens, UniProt O60341).
Description: (§1) Inhibition of recombinant human LSD1 (172 to 852 residues) using biotin-labelled H3K4me2 (1 to 24 residues) after 1 hr by TR-FRET assay
For assay [2], the target named is T2, Amine oxidase [flavin-containing] B (Homo sapiens, UniProt P27338).
T2 sequence (P27338 whole entry): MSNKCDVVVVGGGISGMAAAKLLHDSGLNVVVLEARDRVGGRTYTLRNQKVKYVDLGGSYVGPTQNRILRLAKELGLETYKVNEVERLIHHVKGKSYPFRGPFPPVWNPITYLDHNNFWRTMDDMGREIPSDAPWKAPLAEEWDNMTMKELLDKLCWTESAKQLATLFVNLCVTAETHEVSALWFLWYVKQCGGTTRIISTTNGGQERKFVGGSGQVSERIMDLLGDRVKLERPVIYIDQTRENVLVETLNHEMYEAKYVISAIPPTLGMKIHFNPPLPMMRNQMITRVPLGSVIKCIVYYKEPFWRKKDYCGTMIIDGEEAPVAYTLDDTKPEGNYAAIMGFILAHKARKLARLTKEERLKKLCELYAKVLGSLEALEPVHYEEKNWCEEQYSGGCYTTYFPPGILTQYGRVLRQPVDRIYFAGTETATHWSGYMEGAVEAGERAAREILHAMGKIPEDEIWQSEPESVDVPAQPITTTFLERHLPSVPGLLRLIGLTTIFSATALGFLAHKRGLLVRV
Description: (§2) Inhibition of MAOB (unknown origin) by Promega MAO-Glo assay

For assay [3], the target named is T3, Amine oxidase [flavin-containing] A (Homo sapiens, UniProt P21397).
T3 sequence (P21397 whole entry): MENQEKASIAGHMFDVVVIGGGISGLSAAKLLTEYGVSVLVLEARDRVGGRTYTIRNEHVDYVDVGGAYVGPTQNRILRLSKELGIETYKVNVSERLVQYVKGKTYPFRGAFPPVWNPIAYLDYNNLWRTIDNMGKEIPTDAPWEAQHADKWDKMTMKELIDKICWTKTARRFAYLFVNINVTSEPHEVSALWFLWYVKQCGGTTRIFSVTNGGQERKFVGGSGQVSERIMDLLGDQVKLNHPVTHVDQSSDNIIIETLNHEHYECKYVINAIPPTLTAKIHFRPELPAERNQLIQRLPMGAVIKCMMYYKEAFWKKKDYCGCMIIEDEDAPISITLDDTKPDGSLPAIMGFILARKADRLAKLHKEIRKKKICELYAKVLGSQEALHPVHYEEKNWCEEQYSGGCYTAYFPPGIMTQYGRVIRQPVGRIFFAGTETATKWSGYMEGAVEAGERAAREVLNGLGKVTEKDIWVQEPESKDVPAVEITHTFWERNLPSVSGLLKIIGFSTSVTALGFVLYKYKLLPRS
Description: (§3) Inhibition of MAOA (unknown origin) by Promega MAO-Glo assay

Assay [4] concerns MV4-11. Nature of the assay: cells. As to conditions: Homo sapiens, MV4-11, 168 h; call rule not given here.
Assay [5] deals with T2, Amine oxidase [flavin-containing] B. This is another data set of the same source.
Description: as §2
In assay [6] the target is T1, Lysine-specific histone demethylase 1A. This is another data set of the same source.
Description: as §1
Assay [7] concerns the target T3, Amine oxidase [flavin-containing] A. This is another data set of the same source.
Description: as §3
Assay [8] has as its target Menin/Histone-lysine N-methyltransferase MLL (Homo sapiens, UniProt O00255).
Description: (§4) Inhibition of full length human menin/FAM-tagged MLL1 (unknown origin) protein-protein interaction after 15 mins by fluorescence polarization assay
The target of assay [9] is T1, Lysine-specific histone demethylase 1A. Nature of the assay: Inhibition of LSD1 in human MV4-11 cells assessed as increase in CD86 mRNA expression at 100 nM by SYBR Green dye-bsed RT-qPCR analysis relative to control. Type of assay: cell-based. (In general: Quantitative PCR measures a nucleic acid by following its amplification.)
Assay [10] concerns MV4-11. Nature of the assay: Antiproliferative activity against human MV4-11 cells after 240 hrs by MTS assay. Format: functional, cell-based. The following applies: MV4-11, 240 h.
The target in assay [11] is Menin/Histone-lysine N-methyltransferase MLL (Homo sapiens, UniProt O00255+Q03164).
Description: as §4
Assay [12] addresses T1, Lysine-specific histone demethylase 1A. Nature of the assay: Inhibition of LSD1 in human MV4-11 cells assessed as increase in CD86 mRNA expression at 500 nM by SYBR Green dye-bsed RT-qPCR analysis relative to control. Format: cell-based.

SMILES strings stand for the structures.

Chain of Menin/Histone-lysine N-methyltransferase MLL (Homo sapiens, UniProt O00255) (O00255 whole entry): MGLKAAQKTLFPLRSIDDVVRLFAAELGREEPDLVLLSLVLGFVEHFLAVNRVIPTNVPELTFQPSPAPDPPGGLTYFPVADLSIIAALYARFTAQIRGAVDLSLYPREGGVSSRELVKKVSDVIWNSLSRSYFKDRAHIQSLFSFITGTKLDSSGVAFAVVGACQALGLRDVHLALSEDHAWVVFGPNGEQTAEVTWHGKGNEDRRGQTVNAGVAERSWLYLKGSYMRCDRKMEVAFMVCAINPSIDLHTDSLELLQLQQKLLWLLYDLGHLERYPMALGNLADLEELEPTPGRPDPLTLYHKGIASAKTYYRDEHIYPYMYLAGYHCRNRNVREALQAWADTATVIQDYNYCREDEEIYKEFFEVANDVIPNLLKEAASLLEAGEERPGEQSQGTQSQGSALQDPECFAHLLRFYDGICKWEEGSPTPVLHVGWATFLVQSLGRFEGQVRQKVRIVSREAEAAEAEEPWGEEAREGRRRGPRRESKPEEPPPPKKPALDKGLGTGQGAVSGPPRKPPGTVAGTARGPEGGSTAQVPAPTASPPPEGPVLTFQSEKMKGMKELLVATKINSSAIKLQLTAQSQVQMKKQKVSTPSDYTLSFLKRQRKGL
Chain of Menin/Histone-lysine N-methyltransferase MLL (Homo sapiens, UniProt O00255) (Q03164 1-2718 partner limits assumed): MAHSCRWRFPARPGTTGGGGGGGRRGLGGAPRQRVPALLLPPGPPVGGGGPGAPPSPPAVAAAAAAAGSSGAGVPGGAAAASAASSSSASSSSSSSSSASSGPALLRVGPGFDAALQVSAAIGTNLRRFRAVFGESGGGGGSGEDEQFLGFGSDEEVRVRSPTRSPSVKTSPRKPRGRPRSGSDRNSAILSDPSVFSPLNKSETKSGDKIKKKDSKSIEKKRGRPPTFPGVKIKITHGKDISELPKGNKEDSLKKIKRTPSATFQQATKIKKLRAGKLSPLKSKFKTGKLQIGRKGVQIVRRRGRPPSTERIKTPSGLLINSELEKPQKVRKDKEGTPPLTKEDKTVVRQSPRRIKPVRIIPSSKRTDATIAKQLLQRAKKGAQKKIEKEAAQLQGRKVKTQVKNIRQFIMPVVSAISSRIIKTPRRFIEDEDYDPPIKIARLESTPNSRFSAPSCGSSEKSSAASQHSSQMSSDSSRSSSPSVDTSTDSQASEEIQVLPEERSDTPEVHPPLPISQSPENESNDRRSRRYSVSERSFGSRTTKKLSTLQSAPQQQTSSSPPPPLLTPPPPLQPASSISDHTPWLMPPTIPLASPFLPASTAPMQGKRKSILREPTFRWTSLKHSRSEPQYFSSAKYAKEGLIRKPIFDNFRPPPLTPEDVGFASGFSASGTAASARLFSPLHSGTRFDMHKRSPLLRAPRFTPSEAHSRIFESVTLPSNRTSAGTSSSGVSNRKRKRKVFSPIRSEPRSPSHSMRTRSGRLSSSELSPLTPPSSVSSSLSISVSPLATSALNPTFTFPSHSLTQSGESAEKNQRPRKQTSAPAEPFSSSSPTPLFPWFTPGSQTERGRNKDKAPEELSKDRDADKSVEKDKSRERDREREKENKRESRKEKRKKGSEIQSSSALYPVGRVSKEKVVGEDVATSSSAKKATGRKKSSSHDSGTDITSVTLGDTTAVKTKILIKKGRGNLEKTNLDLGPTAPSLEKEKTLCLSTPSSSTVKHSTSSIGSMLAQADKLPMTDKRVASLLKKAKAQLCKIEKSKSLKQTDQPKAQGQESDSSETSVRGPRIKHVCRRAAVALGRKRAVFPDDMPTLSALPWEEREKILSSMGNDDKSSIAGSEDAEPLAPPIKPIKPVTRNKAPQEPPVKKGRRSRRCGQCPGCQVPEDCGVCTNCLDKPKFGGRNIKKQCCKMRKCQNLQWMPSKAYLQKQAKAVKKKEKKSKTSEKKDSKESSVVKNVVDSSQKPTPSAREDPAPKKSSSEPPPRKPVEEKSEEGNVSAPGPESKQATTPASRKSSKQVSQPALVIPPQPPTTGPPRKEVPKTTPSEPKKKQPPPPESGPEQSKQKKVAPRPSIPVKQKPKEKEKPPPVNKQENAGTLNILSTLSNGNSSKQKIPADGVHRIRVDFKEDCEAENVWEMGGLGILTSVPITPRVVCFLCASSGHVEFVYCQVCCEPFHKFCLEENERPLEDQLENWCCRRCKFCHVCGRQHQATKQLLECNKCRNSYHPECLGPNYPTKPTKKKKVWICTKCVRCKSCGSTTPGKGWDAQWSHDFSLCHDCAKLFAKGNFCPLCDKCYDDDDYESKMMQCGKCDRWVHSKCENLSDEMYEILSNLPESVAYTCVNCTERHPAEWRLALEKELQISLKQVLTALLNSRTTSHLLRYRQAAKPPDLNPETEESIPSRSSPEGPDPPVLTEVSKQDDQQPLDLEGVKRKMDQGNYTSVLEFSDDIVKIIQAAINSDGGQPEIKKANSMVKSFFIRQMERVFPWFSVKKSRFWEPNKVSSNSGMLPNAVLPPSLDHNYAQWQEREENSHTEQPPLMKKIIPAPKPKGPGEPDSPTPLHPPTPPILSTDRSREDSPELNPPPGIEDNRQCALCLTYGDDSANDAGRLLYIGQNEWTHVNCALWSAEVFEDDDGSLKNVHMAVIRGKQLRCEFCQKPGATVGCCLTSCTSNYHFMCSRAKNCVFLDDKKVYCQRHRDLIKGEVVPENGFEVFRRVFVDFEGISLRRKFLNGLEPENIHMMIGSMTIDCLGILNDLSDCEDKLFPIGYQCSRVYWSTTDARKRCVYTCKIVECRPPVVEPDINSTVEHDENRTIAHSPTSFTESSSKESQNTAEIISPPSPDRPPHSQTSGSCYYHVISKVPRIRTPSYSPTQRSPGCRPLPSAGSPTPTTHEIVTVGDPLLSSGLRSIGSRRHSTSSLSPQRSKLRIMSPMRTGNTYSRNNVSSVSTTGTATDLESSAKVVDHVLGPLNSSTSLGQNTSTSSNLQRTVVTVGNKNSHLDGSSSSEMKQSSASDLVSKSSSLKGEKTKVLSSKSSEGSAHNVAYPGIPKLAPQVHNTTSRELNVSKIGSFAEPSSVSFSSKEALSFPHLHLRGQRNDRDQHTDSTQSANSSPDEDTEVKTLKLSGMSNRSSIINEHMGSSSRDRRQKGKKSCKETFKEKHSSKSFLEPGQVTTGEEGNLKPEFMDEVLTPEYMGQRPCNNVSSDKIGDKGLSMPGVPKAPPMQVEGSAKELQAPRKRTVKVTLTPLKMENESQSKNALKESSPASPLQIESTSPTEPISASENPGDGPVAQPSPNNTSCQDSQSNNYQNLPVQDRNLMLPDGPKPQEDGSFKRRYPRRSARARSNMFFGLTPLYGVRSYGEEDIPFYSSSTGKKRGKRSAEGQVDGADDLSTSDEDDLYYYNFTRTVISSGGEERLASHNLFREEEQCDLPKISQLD
Chain of Menin/Histone-lysine N-methyltransferase MLL (Homo sapiens, UniProt O00255) (Q03164 2719-3969 partner limits assumed): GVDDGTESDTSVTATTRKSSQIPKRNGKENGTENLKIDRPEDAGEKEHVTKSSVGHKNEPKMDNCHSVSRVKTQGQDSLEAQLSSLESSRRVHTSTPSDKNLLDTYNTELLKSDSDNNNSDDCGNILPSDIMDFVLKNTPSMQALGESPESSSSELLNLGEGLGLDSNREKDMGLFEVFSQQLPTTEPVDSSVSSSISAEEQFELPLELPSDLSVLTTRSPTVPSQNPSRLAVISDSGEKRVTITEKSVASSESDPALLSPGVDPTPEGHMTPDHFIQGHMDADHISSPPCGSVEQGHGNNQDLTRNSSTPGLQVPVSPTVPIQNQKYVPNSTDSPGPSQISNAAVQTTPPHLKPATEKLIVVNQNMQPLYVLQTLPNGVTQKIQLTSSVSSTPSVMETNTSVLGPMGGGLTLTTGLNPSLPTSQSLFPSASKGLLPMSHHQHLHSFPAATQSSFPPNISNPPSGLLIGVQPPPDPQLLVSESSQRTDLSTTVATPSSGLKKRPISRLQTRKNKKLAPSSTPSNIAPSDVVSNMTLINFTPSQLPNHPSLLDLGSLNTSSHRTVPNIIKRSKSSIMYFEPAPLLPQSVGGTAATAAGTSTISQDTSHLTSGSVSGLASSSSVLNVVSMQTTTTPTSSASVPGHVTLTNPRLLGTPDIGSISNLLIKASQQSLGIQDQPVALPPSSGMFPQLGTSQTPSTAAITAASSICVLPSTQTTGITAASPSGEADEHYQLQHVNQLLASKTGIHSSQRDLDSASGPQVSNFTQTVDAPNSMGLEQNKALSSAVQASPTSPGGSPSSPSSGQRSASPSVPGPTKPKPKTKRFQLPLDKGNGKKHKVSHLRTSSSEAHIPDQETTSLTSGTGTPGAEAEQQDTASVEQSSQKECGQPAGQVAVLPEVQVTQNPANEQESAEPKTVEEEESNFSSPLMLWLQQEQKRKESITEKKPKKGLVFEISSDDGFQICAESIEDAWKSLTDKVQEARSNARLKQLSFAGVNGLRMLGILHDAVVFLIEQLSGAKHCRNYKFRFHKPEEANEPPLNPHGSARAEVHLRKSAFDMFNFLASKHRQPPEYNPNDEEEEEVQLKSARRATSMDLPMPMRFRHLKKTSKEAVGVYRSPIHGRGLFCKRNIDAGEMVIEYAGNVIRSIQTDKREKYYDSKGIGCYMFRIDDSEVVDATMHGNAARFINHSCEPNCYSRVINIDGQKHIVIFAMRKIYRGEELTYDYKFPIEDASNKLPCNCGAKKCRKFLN
Chain of Menin/Histone-lysine N-methyltransferase MLL (Homo sapiens, UniProt O00255+Q03164) (O00255 whole entry): as the sequence (O00255 whole entry) above
Chain of Menin/Histone-lysine N-methyltransferase MLL (Homo sapiens, UniProt O00255+Q03164) (Q03164 1-2718 limits assumed): as the sequence (Q03164 1-2718 partner limits assumed) above
Chain of Menin/Histone-lysine N-methyltransferase MLL (Homo sapiens, UniProt O00255+Q03164) (Q03164 2719-3969 limits assumed): as the sequence (Q03164 2719-3969 partner limits assumed) above

Take `CC1(C)CN=C(N2CCN(c3ncnc4sc(CC(F)(F)F)cc34)CC2)S1`: the IC50 result in [1] was “Not Active”; in [2], “Not Active”; in assay [3], “Not Active”; in the assay on MV4-11 [4], 2.6 µM.

As to `FC(F)(F)Cc1cc2c(N[C@H]3CC[C@@H](N[C@H]4C[C@@H]4c4ccccc4)CC3)ncnc2s1`, the IC50 in assay [5] was 75.6 µM; in assay [6], 0.242 µM; in assay [7], greater than 100 µM; with MV4-11 [4], 3.42 µM; in [8], 24.7 µM.

Regarding `Fc1ccc([C@@H]2C[C@H]2N[C@H]2CC[C@H](Nc3ncnc4sc(CC(F)(F)F)cc34)CC2)cc1F`, the IC50 was 71.6 µM in assay [5]; 0.146 µM in assay [6]; 47.5 µM in assay [7]; 2.01 µM in the assay on MV4-11 [4]; greater than 100 µM in assay [8].

`FC(F)(F)Cc1cc2c(N[C@H]3CC[C@@H](N[C@@H]4C[C@H]4c4ccccc4)CC3)ncnc2s1`: the 50% inhibitory concentration (IC50) in assay [5] was found to be 6.05 µM; in assay [6] it was 0.124 µM; in assay [7], 4.55 µM; in the assay on MV4-11 [4], 2.49 µM; in assay [8], 50.7 µM.

As to `FC(F)(F)Cc1cc2c(N[C@H]3CC[C@H](CN[C@H]4C[C@@H]4c4ccccc4)CC3)ncnc2s1`, the IC50 in assay [5] was 22 µM; in assay [6], 0.184 µM; in assay [7] it was 8.57 µM; with MV4-11 [4], 5.55 µM; in assay [8] it was greater than 100 µM.

On to `Fc1ccc([C@@H]2C[C@H]2NC[C@H]2CC[C@H](Nc3ncnc4sc(CC(F)(F)F)cc34)CC2)cc1F`, for which the IC50 was 20.4 µM in assay [5]; 0.36 µM in assay [6]; 21 µM in assay [7]; 6.96 µM with MV4-11 [4]; greater than 100 µM in assay [8].

Take `Fc1ccc([C@@H]2C[C@H]2N[C@H]2CC[C@@H](Nc3ncnc4sc(CC(F)(F)F)cc34)CC2)cc1F`: the IC50 in assay [5] is 1.21 µM; in assay [6], 0.0661 µM; in [7], 40.9 µM; in the assay on MV4-11 [4], 0.51 µM; in assay [8], 2.13 µM. Also, the fold change (FC) in assay [9] worked out at 7.59.

Consider `Fc1ccc([C@@H]2C[C@H]2NC2CCN(c3ncnc4sc(CC(F)(F)F)cc34)CC2)cc1F`, for which the IC50 in [5] was 95.6 µM; in assay [6] it was 0.241 µM; in assay [7] it was 56.4 µM; in the assay on MV4-11 [4] it was greater than 100 µM; in assay [8] it was greater than 100 µM.

Take `FC(F)(F)Cc1cc2c(N3CCC(CN[C@@H]4C[C@H]4c4ccccc4)CC3)ncnc2s1`: the IC50 is 1.16 µM in assay [5]; 0.0844 µM in assay [6]; 2.23 µM in assay [7]; 11.4 µM in the assay on MV4-11 [4]; 17.3 µM in [8].

For the molecule `O=C(O)c1ccc(CN2CCC(CN[C@@H]3C[C@H]3c3ccccc3)CC2)cc1` [GSK2879552], the IC50 is 1.16 µM in the assay on MV4-11 [10]; greater than 100 µM in assay [5]; “Not Active” in assay [11]; 1.2 µM in assay [6]; greater than 100 µM in assay [7].

As for `Fc1ccc([C@@H]2C[C@H]2NCC2CCN(c3ncnc4sc(CC(F)(F)F)cc34)CC2)cc1F`, the IC50 was 49.5 µM in assay [5]; 0.252 µM in [6]; 20.8 µM in assay [7]; greater than 100 µM in the assay with MV4-11 [4]; 30.9 µM in [8].

For the molecule `FC(F)(F)Cc1cc2c(N[C@H]3CC[C@H](CN[C@@H]4C[C@H]4c4ccccc4)CC3)ncnc2s1`, the half-inhibitory concentration (IC50) in assay [5] is 4.81 µM; in [6] it was 0.109 µM; in assay [7] it was 4.1 µM; in the assay with MV4-11 [4], 2.96 µM; in assay [8], greater than 100 µM.

On to `FC(F)(F)Cc1cc2c(N3CCC(N[C@H]4C[C@@H]4c4ccccc4)CC3)ncnc2s1`, for which the IC50 amounted to 36.7 µM in [5]; 0.692 µM in [6]; 8.27 µM in [7]; 7.31 µM in the assay with MV4-11 [4]; 34.5 µM in [8].

Take `FC(F)(F)Cc1cc2c(N[C@H]3CC[C@H](N[C@@H]4C[C@H]4c4ccccc4)CC3)ncnc2s1`: the IC50 in assay [5] was greater than 100 µM; in [6], 0.303 µM; in assay [7] it was 65.9 µM; in the assay on MV4-11 [4], 0.49 µM; in assay [8], 36.9 µM. In addition, the fold change (FC) in [12] came out at 16.4.

Consider `FC(F)(F)Cc1cc2c(N3CCC(N[C@@H]4C[C@H]4c4ccccc4)CC3)ncnc2s1`, for which the IC50 in assay [5] was 40.3 µM; in assay [6] it was 0.211 µM; in assay [7] it was 12.5 µM; with MV4-11 [4] it was 0.29 µM; in [8], 10.2 µM. For the same molecule, the fold change (FC) in assay [12] was 22.3.

As to `FC(F)(F)Cc1cc2c(N3CCC(CN[C@H]4C[C@@H]4c4ccccc4)CC3)ncnc2s1`, the IC50 in [5] was 9.63 µM; in assay [6], 0.061 µM; in assay [7], 9.19 µM; in the assay on MV4-11 [4], 5.97 µM; in [8], greater than 100 µM.

With `FC(F)(F)Cc1cc2c(N[C@H]3CC[C@H](N[C@H]4C[C@@H]4c4ccccc4)CC3)ncnc2s1`, the IC50 in assay [5] was 28.8 µM; in [6], 0.187 µM; in [7], 12.9 µM; in the assay on MV4-11 [4], 3.6 µM; in assay [8] it was greater than 100 µM.

Broadly, the IC50 is the concentration at which inhibition is half-maximal. High values mean lower potency, low ones higher potency.
